The values below come from patent publication US9994551B2, “Pyridazine derivatives as RORc modulators” (Genentech, Inc., priority 2015, dated 2018).

This test addresses T1, RORc ligand binding domain (Homo sapiens, UniProt P51449).
T1 construct: host or cells: E. coli
T1 sequence (P51449 269-508 limits assumed): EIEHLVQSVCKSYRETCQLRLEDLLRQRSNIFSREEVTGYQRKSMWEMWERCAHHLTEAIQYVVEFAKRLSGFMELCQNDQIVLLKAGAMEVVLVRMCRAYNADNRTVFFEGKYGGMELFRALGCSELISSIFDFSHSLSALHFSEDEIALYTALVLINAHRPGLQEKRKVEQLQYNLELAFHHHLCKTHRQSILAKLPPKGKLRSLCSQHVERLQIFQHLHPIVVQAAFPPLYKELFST
Kind of test: In vitro RORc ligand binding assay (25-[3H]hydroxycholesterol displacement, filter binding).

Broadly, the pIC50 is the negative decadic logarithm of the IC50, by convention in mol/L.

pIC50: −log10 of the molar value.

Consider `CN(C)C(=O)N1CCC[C@H]([C@@]23CC[C@@H](c4cc(-c5c(F)cccc5F)nnc42)C3(C)C)C1` [Compound 97, (R)-3-((5R,8R)-3-(2,6-difluorophenyl)-9,9-dimethyl-5,6,7,8-tetrahydro-5,8-methanocinnolin-8-yl)-N,N-dimethylpiperidine-1-carboxamide], for which the negative-log IC50 (pIC50) was 7.01.
Under `CC[C@@H](O[C@@]12CC[C@@H](c3cc(-c4c(F)cccc4F)nnc31)C2(C)C)C(=O)N(C)C` [Compound 36, (R)-2-(((5S,8R)-3-(2,6-difluorophenyl)-9,9-dimethyl-5,6,7,8-tetrahydro-5,8-methanocinnolin-8-yl)oxy)-N,N-dimethylbutanamide] stands 7.27.
As for `CC1(C)[C@H]2CC[C@]1([C@H]1CN(c3ncn[nH]3)CCO1)c1nnc(-c3c(F)cccc3F)cc12` [Compound 144, 2-[5-(2,6-difluorophenyl)-11,11-dimethyl-3,4-diazatricyclo[6.2.1.02,7]undeca-2,4,6-trien-1-yl]-4-(1H-1,2,4-triazol-5-yl)morpholine], the negative-log IC50 (pIC50) is 7.47.
Turning to `Cc1n[nH]c(N2CCO[C@@H]([C@@]34CC[C@@H](c5cc(-c6c(F)cccc6F)nnc53)C4(C)C)C2)n1` [Compound 93, (S)-2-((5R,8R)-3-(2,6-difluorophenyl)-9,9-dimethyl-5,6,7,8-tetrahydro-5,8-methanocinnolin-8-yl)-4-(3-methyl-1H-1,2,4-triazol-5-yl)morpholine], the pIC50 is 6.72.
`CC(=O)N1CCN(C)[C@H]([C@@]23CC[C@@H](c4cc(-c5c(F)cccc5F)nnc42)C3(C)C)C1` [Compound 177, 1-[3-[5-(2,6-difluorophenyl)-11,11-dimethyl-3,4-diazatricyclo[6.2.1.02,7]undeca-2,4,6-trien-1-yl]-4-methyl-piperazin-1-yl]ethanone] showed a pIC50 of 7.82.
With `CC1(C)[C@H]2CC[C@]1([C@H]1CN(c3ccccn3)CCO1)c1nnc(-c3c(F)cccc3F)cc12` [Compound 82, (S)-2-((5R,8R)-3-(2,6-difluorophenyl)-9,9-dimethyl-5,6,7,8-tetrahydro-5,8-methanocinnolin-8-yl)-4-(pyridin-2-yl)morpholine], the negative logarithm of the IC50 (pIC50) was 7.78.
Under `CC[C@@H](O[C@@]12CC[C@@H](c3cc(-c4c(F)cccc4F)nnc31)C2(C)C)C(=O)NC[C@@H](O)CO` [Compound 54, (R)-2-(((5S,8R)-3-(2,6-difluorophenyl)-9,9-dimethyl-5,6,7,8-tetrahydro-5,8-methanocinnolin-8-yl)oxy)-N-((R)-2,3-dihydroxypropyl)butanamide] stands 7.12.
With `CC[C@H](O[C@@]12CC[C@@H](c3cc(-c4c(F)cccc4F)nnc31)C2(C)C)C(=O)OC` [Compound 110, methyl (2S)-2-[[(1R,8S)-5-(2,6-difluorophenyl)-11,11-dimethyl-3,4-diazatricyclo[6.2.1.02,7]undeca-2,4,6-trien-1-yl]oxy]butanoate], the pIC50 is 7.00. The pIC50 values of the last two compounds are within 0.2 log units of each other.
On to `CNC(=O)N1CCO[C@@H]([C@@]23CC[C@@H](c4cc(-c5c(F)cccc5F)nnc42)C3(C)C)C1` [Compound 74, (S)-2-((5R,8R)-3-(2,6-difluorophenyl)-9,9-dimethyl-5,6,7,8-tetrahydro-5,8-methanocinnolin-8-yl)-N-methylmorpholine-4-carboxamide], for which the negative logarithm of the IC50 (pIC50) is 7.62. This pIC50 lies 0.62 log units higher than the previous one.
For `COC(=O)N1CCC[C@H]([C@@]23CC[C@@H](c4cc(-c5c(F)cccc5F)nnc42)C3(C)C)C1` [Compound 99, (R)-methyl 3-((5R,8R)-3-(2,6-difluorophenyl)-9,9-dimethyl-5,6,7,8-tetrahydro-5,8-methanocinnolin-8-yl)piperidine-1-carboxylate], the pIC50 is 8.16.
`CC1(C)[C@H]2CC[C@]1([C@@H]1CN(C(=O)c3cnco3)CCO1)c1nnc(-c3c(F)cccc3F)cc12` [Compound 90, ((R)-2-((5R,8R)-3-(2,6-difluorophenyl)-9,9-dimethyl-5,6,7,8-tetrahydro-5,8-methanocinnolin-8-yl)morpholino)(oxazol-5-yl)methanone] had a pIC50 of 7.13.
As to `CC1(C)[C@H]2CC[C@]1([C@H]1CCCN(C(N)=O)C1)c1nnc(-c3c(F)cccc3F)cc12` [Compound 120, 3-[5-(2,6-difluorophenyl)-11,11-dimethyl-3,4-diazatricyclo[6.2.1.02,7]undeca-2,4,6-trien-1-yl]piperidine-1-carboxamide], the negative logarithm of the IC50 (pIC50) is 8.31.
Under `CC1(C)[C@H]2CC[C@]1([C@H]1CCC(=O)NC1)c1nnc(-c3c(F)cccc3F)cc12` [Compound 92, (R)-5-((5R,8R)-3-(2,6-difluorophenyl)-9,9-dimethyl-5,6,7,8-tetrahydro-5,8-methanocinnolin-8-yl)piperidin-2-one] stands 6.67.
`Cc1coc(N2CCO[C@@H]([C@@]34CC[C@@H](c5cc(-c6c(F)cccc6F)nnc53)C4(C)C)C2)n1` [Compound 145, 2-[5-(2,6-difluorophenyl)-11,11-dimethyl-3,4-diazatricyclo[6.2.1.02,7]undeca-2,4,6-trien-1-yl]-4-(4-methyloxazol-2-yl)morpholine] had a negative-log IC50 (pIC50) of 7.74.
`CN1CCN(C)[C@H]([C@@]23CC[C@@H](c4cc(-c5c(F)cccc5F)nnc42)C3(C)C)C1` [Compound 180, 5-(2,6-difluorophenyl)-1-(1,4-dimethylpiperazin-2-yl)-11,11-dimethyl-3,4-diazatricyclo[6.2.1.02,7]undeca-2,4,6-triene] gave a negative-log IC50 (pIC50) of 7.80. The pIC50 values of the last two compounds are within 0.2 log units of each other.
In turn, `CC[C@H](C[C@@]12CC[C@@H](c3cc(-c4c(F)cccc4F)nnc31)C2(C)C)C(N)=O` [Compound 4, (R)-2-(((5R,8R)-3-(2,6-difluorophenyl)-9,9-dimethyl-5,6,7,8-tetrahydro-5,8-methanocinnolin-8-yl)methyl)butanamide] gave a pIC50 of 7.08. This pIC50 is 0.72 log units lower than that of the compound before.
As for `CC[C@@H](O[C@@]12CC[C@@H](c3cc(-c4c(F)cccc4F)nnc31)C2(C)C)C(=O)N1CC(C#N)C1` [Compound 37, 1-((R)-2-(((5S,8R)-3-(2,6-difluorophenyl)-9,9-dimethyl-5,6,7,8-tetrahydro-5,8-methanocinnolin-8-yl)oxy)butanoyl)azetidine-3-carbonitrile], the negative logarithm of the IC50 (pIC50) is 7.16.
`CC(=O)N1CCN(C)C[C@@H]1[C@@]12CC[C@@H](c3cc(-c4c(F)cccc4F)nnc31)C2(C)C` [Compound 182, 1-[2-[5-(2,6-difluorophenyl)-11,11-dimethyl-3,4-diazatricyclo[6.2.1.02,7]undeca-2,4,6-trien-1-yl]-4-methyl-piperazin-1-yl]ethanone] had a negative logarithm of the IC50 (pIC50) of 8.04.
Consider `CN1CCO[C@@H]([C@@]23CC[C@@H](c4cc(-c5c(F)cccc5F)nnc42)C3(C)C)C1` [Compound 71, (S)-2-((5R,8R)-3-(2,6-difluorophenyl)-9,9-dimethyl-5,6,7,8-tetrahydro-5,8-thanocinnolin-8-yl)-4-methylmorpholine], for which the pIC50 is 6.43.
With `CN1CCN[C@H]([C@@]23CC[C@@H](c4cc(-c5c(F)cccc5F)nnc42)C3(C)C)C1` [Compound 183, 5-(2,6-difluorophenyl)-11,11-dimethyl-1-(4-methylpiperazin-2-yl)-3,4-diazatricyclo[6.2.1.02,7]undeca-2,4,6-triene], the negative logarithm of the IC50 (pIC50) is 7.89.
The compound `CC1(C)[C@H]2CC[C@]1([C@H]1CCCN(C(=O)c3ccno3)C1)c1nnc(-c3c(F)cccc3F)cc12` (stereo in doubt) [Compound 166, [3-[5-(2,6-difluorophenyl)-11,11-dimethyl-3,4-diazatricyclo[6.2.1.02,7]undeca-2,4,6-trien-1-yl]-1-piperidyl]-isoxazol-5-yl-methanone] had a pIC50 of 7.48.
As for `CN1CCO[C@H]([C@@]23CC[C@@H](c4cc(-c5c(F)cccc5F)nnc42)C3(C)C)C1` [Compound 67, (R)-2-((5R,8R)-3-(2,6-difluorophenyl)-9,9-dimethyl-5,6,7,8-tetrahydro-5,8-methanocinnolin-8-yl)-4-methylmorpholine], the negative logarithm of the IC50 (pIC50) was 6.67.
In the case of `CNC(=O)c1cnc(O[C@@]23CC[C@@H](c4cc(-c5c(F)cccc5F)nnc42)C3(C)C)cn1` [Compound 9, 5-(((5S,8R)-3-(2,6-difluorophenyl)-9,9-dimethyl-5,6,7,8-tetrahydro-5,8-methanocinnolin-8-yl)oxy)-N-methylpyrazine-2-carboxamide], the negative logarithm of the IC50 (pIC50) is 6.49.
For the compound `CC1(C)[C@H]2CC[C@]1(Oc1ncccn1)c1nnc(-c3c(F)cccc3F)cc12` [Compound 14, (5S,8R)-3-(2,6-difluorophenyl)-9,9-dimethyl-8-(pyrimidin-2-yloxy)-5,6,7,8-tetrahydro-5,8-methanocinnoline], the pIC50 is 7.08.
Under `CC1(C)[C@H]2CC[C@]1(Oc1cccnc1)c1nnc(-c3c(F)cccc3F)cc12` [Compound 27, (5S,8R)-3-(2,6-difluorophenyl)-9,9-dimethyl-8-(pyridin-3-yloxy)-5,6,7,8-tetrahydro-5,8-methanocinnoline] stands 7.17; under `CC(=O)N1CCC[C@H]([C@@]23CC[C@@H](c4cc(-c5c(F)cccc5F)nnc42)C3(C)C)C1` [Compound 98, 1-((R)-3-((5R,8R)-3-(2,6-difluorophenyl)-9,9-dimethyl-5,6,7,8-tetrahydro-5,8-methanocinnolin-8-yl)piperidin-1-yl)ethanone], 6.86; under `CC[C@@H](O[C@@]12CC[C@@H](c3cc(-c4c(F)cccc4F)nnc31)C2(C)C)C(=O)NC(CO)CO` [Compound 53, (R)-2-(((5S,8R)-3-(2,6-difluorophenyl)-9,9-dimethyl-5,6,7,8-tetrahydro-5,8-methanocinnolin-8-yl)oxy)-N-(1,3-dihydroxypropan-2-yl)butanamide], 6.94.
The compound `COC(=O)N1CCO[C@@H]([C@@]23CC[C@@H](c4cc(-c5c(F)cccc5F)nnc42)C3(C)C)C1` [Compound 87, (S)-methyl 2-((5R,8R)-3-(2,6-difluorophenyl)-9,9-dimethyl-5,6,7,8-tetrahydro-5,8-methanocinnolin-8-yl)morpholine-4-carboxylate] had a pIC50 of 7.43.
